# Test results published in ChEMBL document CHEMBL3272231, “beta-Adrenergic blocking agents. 16. 1-(Acylaminomethyl-, ureidomethyl-, and ureidoethylphenoxy)-3-amino-2-propanols” (1977).
# Tests used:
# Assay type in all cases: functional
# Felis catus [1] = test: In vivo antagonist activity at beta-2 adrenergic receptor in cat assessed as inhibition of vasodepressor response administered as infusion for 30 mins relative to control
# Felis catus [2] = test: In vivo antagonist activity at beta-1 adrenergic receptor in cat assessed as inhibition of isoproterenol-induced tachycardia administered as infusion for 30 mins by cardiotachometric analysis; conditions: 0.5 h
# Rattus norvegicus = test: Partial agonist activity at beta adrenergic receptor in catecholamine-depleted rat assessed as change in heart rate at 2.5 mg/kg, iv
Compound,inhibition (INH) (Felis catus [1]) [%],ED50 (Felis catus [2]) [mg/kg],Activity (Rattus norvegicus) [bpm]
CCCNC(=O)NCCc1ccc(OCC(O)CNC(C)(C)C)cc1 (stereo unspecified),27,0.266,
CCCCCCC(=O)NCc1ccc(OCC(O)CNC(C)(C)C)c(Cl)c1 (stereo unspecified),40,1.42,
CC(C)NCC(O)COc1ccc(CNC(N)=O)cc1Br (stereo unspecified),25,0.106,
COc1cc(CNC(C)=O)ccc1OCC(O)CNC(C)C (stereo unspecified),5,0.312,-9
CC(=O)NCc1cc(C)ccc1OCC(O)CNC(C)C (stereo unspecified),80,0.381,5
CCCc1cc(CNC(=O)CC)ccc1OCC(O)CNC(C)C (stereo unspecified),34,0.163,4
COc1cc(CNC(=O)C(C)C)ccc1OCC(O)CNC(C)C (stereo unspecified),3,1.14,-16
CCC(=O)NCc1ccc(OCC(O)CNC(C)C)c(OC)c1 (stereo unspecified),37,0.449,-19
CCCNC(=O)NCCc1ccc(OCC(O)CNC(C)C)c(OC)c1 (stereo unspecified),6,0.867,
CCC(=O)NCc1ccc(OCC(O)CNC(C)(C)C)c(OC)c1 (stereo unspecified),72,1.09,-12
CCCc1cc(CNC(C)=O)ccc1OCC(O)CNC(C)C (stereo unspecified),51,0.04,-17
CCC(=O)NCc1ccc(OCC(O)CNC(C)C)cc1 (stereo unspecified),16,0.658,-6
CCC(=O)NCc1ccccc1OCC(O)CNC(C)C (stereo unspecified),0,0.27,44
CCCCCCC(=O)NCc1ccccc1OCC(O)CNC(C)C (stereo unspecified),19,1.16,
CNC(=O)NCc1ccc(OCC(O)CNC(C)C)c(Cl)c1 (stereo unspecified),21,0.381,
CC(=O)NCc1ccc(OCC(O)CNC(C)C)cc1 (stereo unspecified),0,0.142,2
COc1cc(CNC(N)=O)ccc1OCC(O)CNC(C)(C)C (stereo unspecified),68,0.075,
CCCCNC(=O)NCCc1ccc(OCC(O)CNC(C)C)cc1 (stereo unspecified),0,0.515,
CNC(=O)NCCc1ccc(OCC(O)CNC(C)C)cc1 (stereo unspecified),,0.193,
COc1ccc(CCNCC(O)COc2ccc(CNC(C)=O)cc2Cl)c(OC)c1 (stereo unspecified),17,1.5,
CC(=O)NCc1ccc(OCC(O)CNC(C)(C)C)c(Cl)c1 (stereo unspecified),30,0.021,-30
COc1cc(CNC(C)=O)ccc1OCC(O)CNC(C)(C)C (stereo unspecified),70,0.045,-16
CCOc1cc(CNC(=O)CC)ccc1OCC(O)CNC(C)(C)C (stereo unspecified),68,1.41,
CC(C)NCC(O)COc1ccc(CNC(N)=O)cc1 (stereo unspecified),48,0.117,

Compound,inhibition (INH) (Felis catus [1]) [%],ED50 (Felis catus [2]) [mg/kg],Activity (Rattus norvegicus) [bpm]
CC(=O)NCc1ccc(OCC(O)CNC(C)(C)C)cc1 (stereo unspecified),32,0.21,-7
COc1cc(CNC(N)=O)ccc1OCC(O)CNC(C)C (stereo unspecified),0,0.072,
C=CCc1cc(CNC(=O)CC)ccc1OCC(O)CNC(C)C (stereo unspecified),3,0.098,-10
CC(C)NCC(O)COc1ccccc1CNC(=O)c1ccc(Cl)cc1 (stereo unspecified),45,0.304,14
C=CCc1cc(CNC(C)=O)ccc1OCC(O)CNC(C)C (stereo unspecified),61,0.035,-16
CC(=O)Nc1ccc(OCC(O)CNC(C)C)cc1 (stereo unspecified) [PRACTOLOL],8,,
CNC(=O)NCc1ccc(OCC(O)CNC(C)C)c(OC)c1 (stereo unspecified),87,0.794,
CCC(=O)NCc1ccc(OCC(O)CNC(C)C)c(Cl)c1 (stereo unspecified),83,0.63,-15
CC(=O)NCc1ccccc1OCC(O)CNC(C)(C)C (stereo unspecified),63,0.13,41
CCCC(=O)NCc1ccc(OCC(O)CNC(C)C)cc1 (stereo unspecified),51,1.4,
CCC(=O)NCc1ccc(OCC(O)CNC(C)(C)C)c(Br)c1 (stereo unspecified),21,0.1,0
CCOc1cc(CNC(=O)CC)ccc1OCC(O)CNC(C)C (stereo unspecified),48,0.331,-10
CC(=O)NCc1ccc(OCC(O)CNC(C)C)c(Br)c1 (stereo unspecified),5,0.083,-17
CCC(=O)NCc1ccc(OCC(O)CNC(C)C)c(Br)c1 (stereo unspecified),7,0.269,-15
CCNC(=O)NCc1ccc(OCC(O)CNC(C)C)c(Cl)c1 (stereo unspecified),63,1.76,
CC(C)NCC(O)COc1ccc(CNC(=O)C(C)C)cc1Br (stereo unspecified),43,1.1,-16
CNC(=O)NCCc1ccc(OCC(O)CNC(C)C)c(Br)c1 (stereo unspecified),97,0.88,
CC(=O)NCc1cccc(OCC(O)CNC(C)C)c1 (stereo unspecified),83,0.383,
CCCNC(=O)NCCc1ccc(OCC(O)CNC(C)C)cc1 (stereo unspecified),19,0.065,
CC(C)NCC(O)COc1ccc(CCNC(N)=O)cc1 (stereo unspecified),47,0.101,
CCNC(=O)NCCc1ccc(OCC(O)CNC(C)C)cc1 (stereo unspecified),51,1.75,
CNC(=O)NCc1ccc(OCC(O)CNC(C)C)c(Br)c1 (stereo unspecified),0,0.572,
CCCC(=O)NCc1ccc(OCC(O)CNC(C)(C)C)c(OC)c1 (stereo unspecified),17,0.282,-10
